In article PMC9820316, “Novel Arylpiperazine Derivatives of Salicylamide with α1-Adrenolytic Properties Showed Antiarrhythmic and Hypotensive Properties in Rats” (International Journal of Molecular Sciences, 2022):
Marks after values point to notes of the source that are not given here.

Experiments:
[1] = system: adrenaline-induced arrhythmia model in rats; test: Prophylactic antiarrhythmic activity in adrenaline-induced arrhythmia; assay type: in vivo, rat; settings: for Blocks / Bradycardia / Extrasystoles / Mortality: number of animals with event
Protocol: (§1) The animals were anesthetized with thiopental (75 mg/kg ip). Depending on the model, either adrenaline, aconitine, or calcium chloride was used as an arrhythmogen. Adrenaline and aconitine were administered iv at a dose of 20 µg/kg, whereas calcium chloride was administered at a dose of 140 mg/kg to induce heart rhythm disturbances. The tested compounds were injected iv 15 min before the arrhythmogen. Aspel ASCARD apparatus (standard II lead, with the tape speed 50 mm/s and voltage calibration 1 mV = 1 cm) was used for ECG measurements. […] The ED50 was calculated using the method of Litchfield and Wilcoxon.

[2] = system: normal ECG in rats; test: Effect on a normal electrocardiogram in rats; assay type: in vivo, rat; settings: 5 mg/kg iv; for HR—heart rate / PQ interval / QRS complex / QTc (Bazzett's formula): mean ± SD; for PQ interval / QRS complex / QTc (Bazzett's formula): in ms (unit assumed)
Protocol: The procedure was performed to exclude the negative effects of the tested compounds on the normal ECG, according to the method described earlier. […] Firstly, animals were anesthetized with thiopental (75 mg/kg ip). […] The influence on PQ, QTc interval, QRS complex, and heart rate was evaluated. The Bazzett’s formula: QTc = QT/√RR was used to calculate QTc. All the studied compounds were administered at a dose of 5 mg/kg.

[3] = system: pressor response to methoxamine in rats; test: Influence on blood vasopressor response to methoxamine in rats; assay type: in vivo, rat; settings: 1 mg/kg iv, methoxamine 150 μg/kg before and 5 min after compound
Protocol: The experiment was performed to establish the effect of the studied derivatives on the pressor response to methoxamine (150 µg/kg, iv), according to the methods described previously. Normotensive Wistar rats were anesthetized with thiopental (75 mg/kg ip). The right carotid artery was cannulated with a polyethylene tube filled with heparin solution using a Datamax apparatus (Columbus Instruments, Columbus, OH, USA). After a 15-min stabilization period, the pressor response to methoxamine before (control) and 5 min after the administration of the tested compounds was measured (Figure 4B). The tested compounds were administered at the lowest hypotensive dose.

[4] = target: α1-adrenergic receptors; test: α1-adrenoceptor radioligand binding assay ([3H]-prazosin, rat cortex); settings: rat cortex tissue, mean ± SEM
Protocol: The α1- and α2-adrenoceptor radioligand binding assays were performed on the rat cerebral cortex using previously described methods. […] The brains were homogenized using the ULTRA-TURRAX homogenizer in 10 mL of an ice-cold 50 mM Tris-HCl buffer (pH 7.6). The homogenates were centrifuged at 20,000× g for 20 min (0–4 °C). Subsequently, the cell pellet was resuspended in the Tris–HCl buffer and centrifuged again. Radioligand binding assays were carried out in plates (MultiScreen/Millipore). The final incubation mixture, with a volume of 300 μL, consisted of 240 μL of the tissue suspension, 30 μL of the radioligand solution, and 30 μL of the buffer containing 7–8 concentrations of the studied compounds. In order to measure the unspecific binding, 10 μM phentolamine (for [^3H]-prazosin) or 10 μM clonidine (for [^3H]-clonidine) were utilized. The incubation was completed by rapid filtration through Whatman GF/C filters using a vacuum manifold (Millipore). The filters were then washed twice with the assay buffer and placed in scintillation vials with a liquid scintillation cocktail. Radioactivity was measured in a WALLAC 1409 DSA liquid scintillation counter (Perkin Elmer, USA). All the assays were performed in duplicates, and the inhibitory constants (Ki) were calculated.

[5] = system: calcium chloride-induced arrhythmia model in rats; test: Prophylactic antiarrhythmic activity in calcium chloride-induced arrhythmia; assay type: in vivo, rat; settings: 5 mg/kg iv 15 min before calcium chloride 140 mg/kg; number of animals with event
Protocol: as §1

[6] = system: adrenaline-induced arrhythmia model in rats; test: Therapeutic antiarrhythmic activity in adrenaline-induced arrhythmia; settings: 1 mg/kg iv immediately after adrenaline 20 µg/kg; number of animals with event
Protocol: The experiments were carried out according to the method described by Szekeres and Papp [71]. The heart rhythm disturbances, such as extrasystoles, conduction blocks, and bradycardia, were induced by iv injection of adrenaline (20 µg/kg) to anesthetized rats (thiopental, 75 mg/kg, ip). […] The Aspel ASCARD apparatus (standard II lead, with a tape of speed 50 mm/s and voltage calibration of 1 mV = 1 cm) was used for the ECG measurements. The ECG was recorded during the first 2 min and in the 5th, 10th, and 15th min after the adrenaline injection (Figure 3B). The lack or decreased amount of extrasystoles, atrioventricular blocks, and bradycardia in the ECG recordings compared to the control group was the criterion of antiarrhythmic activity [72].
Automated ECG waveform analysis was evaluated as described earlier [55], using Eleven Maze software version 0.1 from Eleven Products Sp. z o.o. […] The software, under expert supervision, recognized and classified the heart rhythm irregularities. It also calculated PQ, QRS, QTc, and rate parameters.

[7] = system: normotensive rats; test: Influence on blood pressure in the normotensive rats; assay type: in vivo, rat; settings: for DBP—diastolic blood pressure / SBP—systolic blood pressure: mean ± SD
Protocol: The experiment was performed according to the method described earlier. Normotensive Wistar rats were anesthetized with thiopental (75 mg/kg ip). The right carotid artery was cannulated with a polyethylene tube filled with heparin solution, using a Datamax apparatus (Columbus Instruments, Columbus, OH, USA). After 15 min of the stabilization period, the studied compounds were administered iv, and their effect on systolic and diastolic blood pressure was evaluated (Figure 4A).

[8] = 0.05 mg/kg iv 15 min before adrenaline 20 μg/kg
[9] = 0.1 mg/kg iv 15 min before adrenaline 20 μg/kg
[10] = 0.25 mg/kg iv 15 min before adrenaline 20 μg/kg
[11] = 0 min (prior to administration)
[12] = 0.5 mg/kg iv, 0 min (before administration)
[13] = 1.0 mg/kg iv, 0 min (before administration)

`Cl.NC(=O)c1ccccc1OCCCCN1CCN(c2cccc(Cl)c2)CC1` [JJGW01, 2-{4-[4-(3-chlorophenyl)piperazin-1-ylo]butoxy}benzamide hydrochloride] was tested, and the Blocks [1, 8] was 6/6, the Bradycardia [1, 8] was 6/6 and the Extrasystoles [1, 8] was 6/6. The Mortality [1, 8] was 4/6, the Blocks [1, 9] was 5/6 and the Bradycardia [1, 9] was 3/6. For the same molecule, the Extrasystoles [1, 9] was 5/6, the Mortality [1, 9] was 0/6 and the Blocks [1, 10] was 4/6. For the same molecule, the Bradycardia [1, 10] was 2/6, the Extrasystoles [1, 10] was 4/6 and the Mortality [1, 10] was 1/6. The ED50 ([1]; prophylactic, iv 15 min before adrenaline 20 μg/kg, confidence limits in brackets (Litchfield and Wilcoxon)) was 0.10 (0.03–0.36) mg/kg, the “effect on the heart rate during the ECG recording” value [2] was “did not affect the heart rate” and the “HR—heart rate” value [2, 11] was 311.8 ± 11.6. For the same molecule, the PQ interval [2, 11] was 42.3 ± 3.4, the QRS complex [2, 11] was 49.3 ± 7.8 and the “QTc (Bazzett's formula)” value [2, 11] was 196.0 ± 14.2. The “HR—heart rate” value ([2]; 5 min) was 318.0 ± 28.5, the PQ interval ([2]; 5 min) was 42.3 ± 2.0 and the QRS complex ([2]; 5 min) was 46.7 ± 5.6. For the same molecule, the “QTc (Bazzett's formula)” value ([2]; 5 min) was 193.7 ± 14.9, the “HR—heart rate” value ([2]; 10 min) was 324.6 ± 23.1 and the PQ interval ([2]; 10 min) was 41.3 ± 2.4. The QRS complex ([2]; 10 min) was 48.0 ± 4.2, the “QTc (Bazzett's formula)” value ([2]; 10 min) was 186.6 ± 9.0 and the “HR—heart rate” value ([2]; 15 min) was 324.0 ± 23.1. The PQ interval ([2]; 15 min) was 41.0 ± 3.3, the QRS complex ([2]; 15 min) was 50.3 ± 4.6 and the “QTc (Bazzett's formula)” value ([2]; 15 min) was 190.6 ± 14.5. For the same molecule, the “attenuation of the methoxamine pressor response” value [3] was 81%, the “Adrenergic Receptors—pKi α1” value [4] was 8.40 ± 0.01 and the Blocks [5] was 6/6. The Bradycardia [5] was 6/6, the Extrasystoles [5] was 6/6 and the Fibrillations [5] was 6/6. The Mortality [5] was 6/6, the Blocks [6] was 3/5 and the Bradycardia [6] was 2/5. The Mortality [6] was 0/5, the “DBP—diastolic blood pressure” value [7, 12] was 95.3 ± 12.6 mmHg and the “SBP—systolic blood pressure” value [7, 12] was 130.7 ± 14.9 mmHg. The “DBP—diastolic blood pressure” value ([7]; 0.5 mg/kg iv, 5 min) was 88.5 ± 14.3 mmHg, the “SBP—systolic blood pressure” value ([7]; 0.5 mg/kg iv, 5 min) was 119.0 ± 13.4 mmHg and the “DBP—diastolic blood pressure” value ([7]; 0.5 mg/kg iv, 10 min) was 85.0 ± 13.6 mmHg. For the same molecule, the “SBP—systolic blood pressure” value ([7]; 0.5 mg/kg iv, 10 min) was 115.7 ± 13.0 mmHg, the “DBP—diastolic blood pressure” value ([7]; 0.5 mg/kg iv, 20 min) was 84.8 ± 8.5 mmHg and the “SBP—systolic blood pressure” value ([7]; 0.5 mg/kg iv, 20 min) was 114.7 ± 8.8 mmHg. For the same molecule, the “DBP—diastolic blood pressure” value ([7]; 0.5 mg/kg iv, 30 min) was 84.3 ± 6.9 mmHg, the “SBP—systolic blood pressure” value ([7]; 0.5 mg/kg iv, 30 min) was 114.5 ± 10.2 mmHg and the “DBP—diastolic blood pressure” value ([7]; 0.5 mg/kg iv, 40 min) was 86.0 ± 10.3 mmHg. The “SBP—systolic blood pressure” value ([7]; 0.5 mg/kg iv, 40 min) was 115.2 ± 12.6 mmHg, the “DBP—diastolic blood pressure” value ([7]; 0.5 mg/kg iv, 50 min) was 88.3 ± 15.3 mmHg and the “SBP—systolic blood pressure” value ([7]; 0.5 mg/kg iv, 50 min) was 116.8 ± 17.3 mmHg. The “DBP—diastolic blood pressure” value ([7]; 0.5 mg/kg iv, 60 min) was 86.8 ± 15.5 mmHg, the “SBP—systolic blood pressure” value ([7]; 0.5 mg/kg iv, 60 min) was 113.8 ± 16.1 mmHg and the “DBP—diastolic blood pressure” value [7, 13] was 87.7 ± 11.2 mmHg. For the same molecule, the “SBP—systolic blood pressure” value [7, 13] was 112.5 ± 11.6 mmHg, the “decrease of the diastolic blood pressure” value ([7]; 1 mg/kg iv, 40th min after administration) was 16% and the “decrease of the diastolic blood pressure” value ([7]; 1 mg/kg iv, 60th min after administration) was 17%. For the same molecule, the “DBP—diastolic blood pressure” value ([7]; 1.0 mg/kg iv, 5 min) was 80.2 ± 10.8 mmHg, the “SBP—systolic blood pressure” value ([7]; 1.0 mg/kg iv, 5 min) was 102.5 ± 9.5 ^d mmHg and the “DBP—diastolic blood pressure” value ([7]; 1.0 mg/kg iv, 10 min) was 79.0 ± 11.9 mmHg. The “SBP—systolic blood pressure” value ([7]; 1.0 mg/kg iv, 10 min) was 100.3 ± 10.4 ^d mmHg, the “DBP—diastolic blood pressure” value ([7]; 1.0 mg/kg iv, 20 min) was 77.5 ± 12.1 mmHg and the “SBP—systolic blood pressure” value ([7]; 1.0 mg/kg iv, 20 min) was 99.7 ± 11.3 ^c mmHg. The “DBP—diastolic blood pressure” value ([7]; 1.0 mg/kg iv, 30 min) was 75.7 ± 10.6 mmHg, the “SBP—systolic blood pressure” value ([7]; 1.0 mg/kg iv, 30 min) was 98.2 ± 10.4 ^c mmHg and the “DBP—diastolic blood pressure” value ([7]; 1.0 mg/kg iv, 40 min) was 73.8 ± 14.0 ^a mmHg. For the same molecule, the “SBP—systolic blood pressure” value ([7]; 1.0 mg/kg iv, 40 min) was 95.7 ± 13.3 ^c mmHg, the “DBP—diastolic blood pressure” value ([7]; 1.0 mg/kg iv, 50 min) was 72.7 ± 11.6 mmHg and the “SBP—systolic blood pressure” value ([7]; 1.0 mg/kg iv, 50 min) was 95.5 ± 11.2 ^d mmHg. For the same molecule, the “DBP—diastolic blood pressure” value ([7]; 1.0 mg/kg iv, 60 min) was 73.2 ± 11.3 ^a mmHg, the “SBP—systolic blood pressure” value ([7]; 1.0 mg/kg iv, 60 min) was 96.5 ± 10.6 ^c mmHg and the “decrease of the systolic blood pressure” value ([7]; 1 mg/kg iv, between the 5th and 60th min after the injection) was 9–15%.
